These results are taken from patent publication US20240033207A1, “TOPICALLY ADMINISTRABLE LYSATE (LY) OF DEDIFFERENTIATED CELLS OF THE PLANT HELICHRYSUM STOECHAS FOR ELIMINATING OR REDUCING INFLAMMATION OF THE SKIN” (SOCIETE D'EXPLOITATION DE PRODUITS POUR LES INDUSTRIES …, priority 2020, published 2024).

Molecules are shown by their SMILES. Marks after values point to notes of the source that are not given here.

This assay relates to normal human keratinocytes (NHEK) cocultured with dendritic cells (DC). Kind of assay: Coculture of primary human keratinocytes with dendritic cells, PMA/A23187/PUFA stimulation, lipid mediators in supernatant by LC-MS/MS. Type of assay: cell-based. The source says:
Dendritic cells form part of the cells of the cutaneous immune system, and they are involved in the early inflammatory response. This model is targeted at mimicking the interactions which take place naturally in the skin between the keratinocytes and the cells of the immune system, and it makes it possible to evaluate the impact of active principles on the processes of resolution of inflammation. Briefly, normal human keratinocytes (NHEK) are inoculated in inserts and cultured without contact with dendritic cells (DC) inoculated in the bottom of the wells. The cells are pretreated with the composition CA or glycerol. After 20 hours of incubation, the inflammatory stimulus (mixture of phorbol 12-myristate 13-acetate (PMA) and of calcium ionophore A23187), polyunsaturated fatty acids (PUFAs, lipid precursors of inflammation mediators, eicosanoids) and the compounds (composition CA or glycerol) were again added and incubated for 1 hour. Subsequently, the culture supernatants were collected for analysis of lipid mediators. The experiments were replicated three times. […] The amounts of 5-HETE, LTB4, 12-HETE, 15-HETE and 17-HDOHE are measured by the use of an LC-MS/MS method using a UPLC system (Agilent LC1290 Infinity) coupled to an Agilent 6490 triple quadrupole mass spectrometer (Agilent Technologies) equipped with electrospray ionization operating in negative mode, and are expressed in picograms per culture well (pg/well). The values obtained were expressed as mean+/-sem [standard error of the mean=standard deviation/square root (number of values)]. For each condition, the percentages of activation were calculated as follows: % activation=[mean (condition)]/[mean (stimulated cells)]×100-100. • stimulated cells: PMA/A23187/PUFA-treated cells in the case where the condition studied is the treatment with glycerol. • stimulated cells: cells treated with PMA/A23187/PUFA+0.1% DMSO in the case where the condition studied is the treatment with the composition CA. The statistical analysis was carried out by a Student's test and a significance threshold was set at 5%, the conditions being compared in pairs. A difference between the effectiveness of two products was considered: • significant if p<0.05; • “at the limit of significance” if 0.05≤p<0.1; • and not significant if p>0.1.

[1] abbreviates: 0.01%, PMA/A23187/PUFA-stimulated coculture supernatant, proresolving mediator.
The mark [2] stands for this setting: 0.01%, vs respective stimulated cells (PMA/A23187/PUFA for glycerol, + 0.1% DMSO for composition CA).
The mark [3] stands for this setting: 0.05%, PMA/A23187/PUFA-stimulated NHEK/DC coculture supernatant, proinflammatory mediator.
The mark [4] stands for this setting: 0.05%, vs PMA/A23187/PUFA-treated cells.

Take `OCC(O)CO` [Glycerol]: under setting [1], the “12-HETE (pg/well) Mean +/− SEM” value is given as 15 +/− 1 pg/well, the “15-HETE (pg/well) Mean +/− SEM” value is given as 273 +/− 26 pg/well and the “17-HDOHE (pg/well) Mean +/− SEM” value is on record as 16654 +/− 1409 pg/well. Besides, under setting [2], the 12-HETE % activation is on record as 58%^15, the 15-HETE % activation is 63%* and the 17-HDOHE % activation result is listed as “+13%”. Also, under setting [3], the “5-HETE (pg/well) Mean +/− SEM” value is given as 1152 +/− 201 pg/well and the “LTB4 (pg/well) Mean +/− SEM” value was 400 +/− 38 pg/well. Under setting [4], the 5-HETE % activation is given as 144%* and the LTB4 % activation came to 88%*.
